Laboratory results from US10053465B2 (Incyte Corporation, priority 2015, dated 2018).
Like-named read-outs stand apart in the source and are kept apart here.

Legend:
[1] = molecular target: JAK2 (Homo sapiens (Human), UniProt O60674); details: ratio of IC50 at 1 mM ATP; cited from earlier work
[2] = molecular target: Phospho-Axl (Homo sapiens (Human), UniProt P30530); experiment: biochemical;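 note: test system is recombinant Axl protein that was first autophosphorylated with ATP and MgCl2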
Method: Autophosphorylation of Axl was carried out by incubating the recombinant Axl protein (Life Technologies, PV4275) in buffer containing 50 mM Tris, pH7.5, 0.2 mg/ml Axl, 5 mM ATP, 20 mM MgCl2 and 2 mM DTT at room temperature for 1 hour.
(§1) 0.1 ul test compounds dissolved in DMSO were transferred from compound plates to white 384-well assay plates (Greiner [sequence] plates). […] The plate was protected from light and incubated at room temperature for 60 min.

[3] = molecular target: T1, c-Mer (Homo sapiens (Human), UniProt Q12866); experiment: biochemical
Method: as §1

[4] = molecular target: Tyro3 (Homo sapiens (Human), UniProt Q06418); experiment: biochemical; details: read-out: Tyro3IC50
Method: as §1

[5] = molecular target: T1, c-Mer; details: read-out: c-Mer IC50; HTRF, 60 min room temperature
Method: as §1

[6] = system: NK cells; details: Paolino et al., 2014; cited from earlier work
[7] = system: tumor models with different histologies; details: Paolino et al., 2014; cited from earlier work

Chain of Tyro3 (Q06418 41-890): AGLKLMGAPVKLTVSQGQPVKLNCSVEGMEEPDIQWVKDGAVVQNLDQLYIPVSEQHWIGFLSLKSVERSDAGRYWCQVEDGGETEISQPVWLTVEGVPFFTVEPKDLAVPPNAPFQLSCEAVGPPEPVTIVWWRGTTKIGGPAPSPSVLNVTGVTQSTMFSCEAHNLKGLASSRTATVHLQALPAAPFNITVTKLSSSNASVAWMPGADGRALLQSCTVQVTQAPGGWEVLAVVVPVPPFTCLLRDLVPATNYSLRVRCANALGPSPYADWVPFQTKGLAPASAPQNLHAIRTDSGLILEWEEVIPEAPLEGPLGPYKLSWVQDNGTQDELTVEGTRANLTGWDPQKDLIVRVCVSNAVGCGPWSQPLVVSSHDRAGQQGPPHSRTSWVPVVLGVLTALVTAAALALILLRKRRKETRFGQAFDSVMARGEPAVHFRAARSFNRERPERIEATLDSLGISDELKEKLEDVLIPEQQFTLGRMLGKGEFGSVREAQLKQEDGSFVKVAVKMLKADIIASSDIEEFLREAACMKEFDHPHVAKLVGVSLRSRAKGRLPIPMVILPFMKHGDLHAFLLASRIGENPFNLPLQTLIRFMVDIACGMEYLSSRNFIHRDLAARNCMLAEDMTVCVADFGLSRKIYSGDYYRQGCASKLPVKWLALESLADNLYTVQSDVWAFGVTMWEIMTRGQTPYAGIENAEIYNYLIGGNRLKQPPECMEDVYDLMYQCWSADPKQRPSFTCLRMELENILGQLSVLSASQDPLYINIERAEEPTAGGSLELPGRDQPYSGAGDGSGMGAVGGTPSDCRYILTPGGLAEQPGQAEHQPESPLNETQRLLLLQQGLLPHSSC
Chain of Phospho-Axl (P30530 26-894): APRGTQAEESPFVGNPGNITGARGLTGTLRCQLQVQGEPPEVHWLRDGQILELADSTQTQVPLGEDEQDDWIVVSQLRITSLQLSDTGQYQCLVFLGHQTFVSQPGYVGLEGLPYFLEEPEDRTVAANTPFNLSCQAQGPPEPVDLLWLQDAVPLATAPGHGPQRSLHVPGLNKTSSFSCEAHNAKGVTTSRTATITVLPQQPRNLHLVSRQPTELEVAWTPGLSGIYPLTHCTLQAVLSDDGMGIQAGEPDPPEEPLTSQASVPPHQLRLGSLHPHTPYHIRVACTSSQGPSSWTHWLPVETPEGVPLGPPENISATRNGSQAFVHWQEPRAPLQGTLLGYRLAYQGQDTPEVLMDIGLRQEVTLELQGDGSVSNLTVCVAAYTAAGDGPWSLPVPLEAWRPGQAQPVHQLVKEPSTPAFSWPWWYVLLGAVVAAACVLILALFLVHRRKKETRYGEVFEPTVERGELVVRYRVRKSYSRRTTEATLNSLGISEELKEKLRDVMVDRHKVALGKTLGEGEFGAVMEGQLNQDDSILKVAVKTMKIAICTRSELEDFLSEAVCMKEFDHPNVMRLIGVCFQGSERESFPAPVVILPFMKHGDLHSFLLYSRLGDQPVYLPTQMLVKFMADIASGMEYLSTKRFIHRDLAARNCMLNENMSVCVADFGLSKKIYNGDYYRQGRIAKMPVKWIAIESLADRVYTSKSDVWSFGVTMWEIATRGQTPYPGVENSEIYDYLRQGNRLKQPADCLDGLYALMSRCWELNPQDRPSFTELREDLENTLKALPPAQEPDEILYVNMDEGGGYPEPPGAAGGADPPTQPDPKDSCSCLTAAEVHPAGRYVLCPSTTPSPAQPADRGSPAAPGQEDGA
T1 sequence (Q12866 21-999): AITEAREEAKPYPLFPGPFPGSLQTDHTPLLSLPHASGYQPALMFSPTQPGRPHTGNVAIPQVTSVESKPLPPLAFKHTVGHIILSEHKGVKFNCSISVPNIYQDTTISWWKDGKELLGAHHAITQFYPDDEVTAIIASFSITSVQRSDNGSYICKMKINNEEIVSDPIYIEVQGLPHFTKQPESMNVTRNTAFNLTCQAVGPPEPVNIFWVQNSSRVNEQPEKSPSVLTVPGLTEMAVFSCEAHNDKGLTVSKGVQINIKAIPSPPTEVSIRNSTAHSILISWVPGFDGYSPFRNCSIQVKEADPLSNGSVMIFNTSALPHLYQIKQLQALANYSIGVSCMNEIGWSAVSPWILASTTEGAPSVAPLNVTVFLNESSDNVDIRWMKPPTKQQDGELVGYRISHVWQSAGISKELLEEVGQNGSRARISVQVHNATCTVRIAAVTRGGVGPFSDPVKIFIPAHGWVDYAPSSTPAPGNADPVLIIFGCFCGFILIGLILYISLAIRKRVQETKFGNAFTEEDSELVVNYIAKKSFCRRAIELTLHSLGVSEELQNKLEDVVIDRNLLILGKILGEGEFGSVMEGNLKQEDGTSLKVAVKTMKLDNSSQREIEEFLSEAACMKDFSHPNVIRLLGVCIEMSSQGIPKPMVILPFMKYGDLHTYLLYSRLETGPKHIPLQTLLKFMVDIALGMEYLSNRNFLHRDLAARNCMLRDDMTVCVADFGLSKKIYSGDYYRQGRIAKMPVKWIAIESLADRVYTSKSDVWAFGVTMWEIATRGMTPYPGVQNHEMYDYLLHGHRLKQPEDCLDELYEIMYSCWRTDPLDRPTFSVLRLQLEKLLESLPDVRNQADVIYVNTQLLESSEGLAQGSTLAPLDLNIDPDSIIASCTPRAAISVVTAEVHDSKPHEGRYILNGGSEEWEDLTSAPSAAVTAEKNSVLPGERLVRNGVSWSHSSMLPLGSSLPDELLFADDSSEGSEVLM
Chain of JAK2 (O60674 whole entry, species assumed): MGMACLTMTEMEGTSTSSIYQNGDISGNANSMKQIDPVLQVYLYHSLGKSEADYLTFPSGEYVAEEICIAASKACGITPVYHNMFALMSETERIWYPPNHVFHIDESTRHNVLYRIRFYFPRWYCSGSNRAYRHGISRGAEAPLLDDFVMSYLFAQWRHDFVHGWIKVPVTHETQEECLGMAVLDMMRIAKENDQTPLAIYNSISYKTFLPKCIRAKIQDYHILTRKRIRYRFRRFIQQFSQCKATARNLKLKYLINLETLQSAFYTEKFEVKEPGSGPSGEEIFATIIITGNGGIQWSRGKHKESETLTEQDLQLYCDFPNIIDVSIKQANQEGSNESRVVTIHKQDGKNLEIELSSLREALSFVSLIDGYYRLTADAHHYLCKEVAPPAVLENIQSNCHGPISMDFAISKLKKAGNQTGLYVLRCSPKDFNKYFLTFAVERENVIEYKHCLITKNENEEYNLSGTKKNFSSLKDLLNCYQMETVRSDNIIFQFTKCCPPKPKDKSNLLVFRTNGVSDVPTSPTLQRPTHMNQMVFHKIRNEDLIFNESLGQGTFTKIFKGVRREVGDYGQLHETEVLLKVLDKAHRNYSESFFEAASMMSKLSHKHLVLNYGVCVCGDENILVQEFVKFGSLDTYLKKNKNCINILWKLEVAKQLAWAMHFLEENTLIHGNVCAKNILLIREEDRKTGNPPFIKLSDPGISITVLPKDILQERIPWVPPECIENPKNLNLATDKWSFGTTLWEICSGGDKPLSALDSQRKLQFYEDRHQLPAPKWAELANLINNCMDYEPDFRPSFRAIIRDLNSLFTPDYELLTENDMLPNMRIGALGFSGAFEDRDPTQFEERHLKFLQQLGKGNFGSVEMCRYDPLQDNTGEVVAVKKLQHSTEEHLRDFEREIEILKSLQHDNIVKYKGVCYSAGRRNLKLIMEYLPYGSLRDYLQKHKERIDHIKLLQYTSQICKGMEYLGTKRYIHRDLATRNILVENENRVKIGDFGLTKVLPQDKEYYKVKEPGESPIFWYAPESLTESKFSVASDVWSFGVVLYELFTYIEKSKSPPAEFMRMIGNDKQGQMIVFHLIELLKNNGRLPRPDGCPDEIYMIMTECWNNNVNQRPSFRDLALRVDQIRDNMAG

| Compound | IC50 ([2]; HTRF, 60 min room temperature) | IC50 ([4]; HTRF, 60 min room temperature) | IC50 [5] | IC50 [4] | also measured |
| --- | --- | --- | --- | --- | --- |
| N#CCC1(n2cc(-c3ncnc4[nH]ccc34)cn2)CN(C2CCN(C(=O)c3ccnc(C(F)(F)F)n3)CC2)C1 [Compound 9, [3-[4-(7H-pyrrolo[2,3-d]pyrimidin-4-yl)-1H-pyrazol-1-yl]-1-(1-{[2-(trifluoromethyl)pyrimidin-4-yl]carbonyl}piperidin-4-yl)azetidin-3-yl]acetonitrile] |  |  |  |  | JAK2/JAK1 [1]: >10 |
| Cn1ccc(C(=O)NCC2(c3cccc(-c4ncnc5[nH]ccc45)c3)Cc3ccccc3C2)n1 [Example 29] | 1000 to 3000 nM | > 3000 nM |  |  | IC50 [3]: 1000 to 3000 nM |
| Cc1ncoc1C(=O)NCC1(c2cccc(-c3ncnc4[nH]ccc34)c2)Cc2ccccc2C1 [Example 30] | 500 to 1000 nM | > 3000 nM |  |  | IC50 [3]: 500 to 1000 nM |
| Cn1nccc1C(=O)NCC1(c2cccc(-c3ncnc4[nH]ccc34)c2)Cc2ccccc2C1 [Example 32, 1-Methyl-N-({2-[3-(7H-pyrrolo[2,3-d]pyrimidin-4-yl)phenyl]-2,3-dihydro-1H-inden-2-yl}methyl)-1H-pyrazole-5-carboxamide] | > 3000 nM |  | > 3000 nM | > 3000 nM |  |
| NCC1(c2cccc(-c3ncnc4[nH]ccc34)c2)Cc2ccc(CN3CC(O)C3)cc2C1 (stereo not drawn) [Example 48, 1-((2-(3-(7H-Pyrrolo[2,3-d]pyrimidin-4-yl)phenyl)-2-(aminomethyl)-2,3-dihydro-1H-inden-5-yl)methyl)azetidin-3-ol] | > 3000 nM | 1000 to 3000 nM | > 3000 nM |  |  |
| N#Cc1ccc2c(c1)CC(CN)(c1cccc(-c3ncnc4[nH]ccc34)c1)C2 (stereo not drawn) [Example 49, 2-(Aminomethyl)-2-[3-(7H-pyrrolo[2,3-d]pyrimidin-4-yl)phenyl]indane-5-carbonitrile] | < 500 nM | 1000 to 3000 nM | < 500 nM |  |  |
| NCC1(c2cccc(-c3ncnc4[nH]ccc34)c2)Cc2ccc(N3CC(F)C3)cc2C1 (stereo not drawn) [Example 56, 1-{5-(3-Fluoroazetidin-1-yl)-2-[3-(7H-pyrrolo[2,3-d]pyrimidin-4-yl)phenyl]-2,3-dihydro-1H-inden-2-yl}methanamine] | < 500 nM | 1000 to 3000 nM | < 500 nM |  |  |
| CCn1cnc(-c2ccc3c(c2)CC(CN)(c2cccc(-c4ncnc5[nH]ccc45)c2)C3)c1 (stereo not drawn) [Example 76, 1-{5-(1-Ethyl-1H-imidazol-4-yl)-2-[3-(7H-pyrrolo[2,3-d]pyrimidin-4-yl)phenyl]-2,3-dihydro-1H-inden-2-yl}methanamine] |  | 500 to 1000 nM | < 500 nM |  | IC50 [2]: < 500 nM |
| CCCCNc1nc(-c2cccc(C3(CN)Cc4ccccc4C3)c2)c2cc[nH]c2n1 [Example 80, 4-{3-[2-(Aminomethyl)-2,3-dihydro-1H-inden-2-yl]phenyl}-N-butyl-7H-pyrrolo[2,3-d]pyrimidin-2-amine] | < 500 nM |  | < 500 nM | < 500 nM |  |
| CNc1nc(-c2cccc(C3(CN)Cc4ccccc4C3)c2)c2cc[nH]c2n1 [Example 86, 4-{3-[2-(Aminomethyl)-2,3-dihydro-1H-inden-2-yl]phenyl}-N-methyl-7H-pyrrolo[2,3-d]pyrimidin-2-amine] | < 500 nM | 1000 to 3000 nM | < 500 nM |  |  |
| CCNc1nc(-c2cccc(C3(CN)Cc4ccccc4C3)c2)c2cc[nH]c2n1 [Example 87, 4-{3-[2-(Aminomethyl)-2,3-dihydro-1H-inden-2-yl]phenyl}-N-ethyl-7H-pyrrolo[2,3-d]pyrimidin-2-amine] | < 500 nM | 1000 to 3000 nM | < 500 nM |  |  |
| CC(C)Nc1nc(-c2cccc(C3(CN)Cc4ccccc4C3)c2)c2cc[nH]c2n1 [Example 88, 4-{3-[2-(Aminomethyl)-2,3-dihydro-1H-inden-2-yl]phenyl}-N-isopropyl-7H-pyrrolo[2,3-d]pyrimidin-2-amine] | < 500 nM |  | < 500 nM | > 3000 nM |  |
| NCC1(c2cccc(-c3nc(NC4CCC4)nc4[nH]ccc34)c2)Cc2ccccc2C1 [Example 89, 4-{3-[2-(Aminomethyl)-2,3-dihydro-1H-inden-2-yl]phenyl}-N-cyclobutyl-7H-pyrrolo[2,3-d]pyrimidin-2-amine] | < 500 nM |  | < 500 nM | < 500 nM |  |
| NCC1(c2cccc(-c3nc(NC4CCCC4)nc4[nH]ccc34)c2)Cc2ccccc2C1 [Example 90, 4-{3-[2-(Aminomethyl)-2,3-dihydro-1H-inden-2-yl]phenyl}-N-cyclopentyl-7H-pyrrolo[2,3-d]pyrimidin-2-amine] | < 500 nM | 500 to 1000 nM | < 500 nM |  |  |
| NCC1(c2cccc(-c3nc(NC4CCCCC4)nc4[nH]ccc34)c2)Cc2ccccc2C1 [Example 91, 4-{3-[2-(Aminomethyl)-2,3-dihydro-1H-inden-2-yl]phenyl}-N-cyclohexyl-7H-pyrrolo[2,3-d]pyrimidin-2-amine] | < 500 nM | 1000 to 3000 nM | < 500 nM |  |  |
| Cn1cc(Nc2nc(-c3ccnc(C4(CN)Cc5ccccc5C4)c3)c3cc[nH]c3n2)cn1 [Example 94, 4-{2-[2-(Aminomethyl)-2,3-dihydro-1H-inden-2-yl]pyridin-4-yl}-N-(1-methyl-1H-pyrazol-4-yl)-7H-pyrrolo[2,3-d]pyrimidin-2-amine] | < 500 nM |  | < 500 nM | < 500 nM |  |
| NCC1(c2cc(-c3nc(Nc4cccc(CN5CCOCC5)c4)nc4[nH]ccc34)ccn2)Cc2ccccc2C1 [Example 95, 4-{2-[2-(Aminomethyl)-2,3-dihydro-1H-inden-2-yl]pyridin-4-yl}-N-[3-(morpholin-4-ylmethyl)phenyl]-7H-pyrrolo[2,3-d]pyrimidin-2-amine] | < 500 nM |  | < 500 nM | < 500 nM |  |
| COc1cnc2[nH]ccc2c1-c1ccnc(C2(CN)Cc3ccccc3C2)c1 [Example 96, 1-{2-[4-(5-Methoxy-1H-pyrrolo[2,3-b]pyridin-4-yl)pyridin-2-yl]-2,3-dihydro-1H-inden-2-yl}methanamine] |  |  | < 500 nM | < 500 nM | IC50 [2]: < 500 nM |
| NCC1(c2cc(-c3ccnc4[nH]ncc34)ccn2)Cc2ccccc2C1 [Example 97, 1-{2-[4-(1H-Pyrazolo[3,4-b]pyridin-4-yl)pyridin-2-yl]-2,3-dihydro-1H-inden-2-yl}methanamine] | < 500 nM | 1000 to 3000 nM |  |  | IC50 [3]: < 500 nM |
| CCOc1cn(-c2ccc(F)cc2C)nc1C(=O)Nc1ccc(Oc2ccnc3cc(OC)c(OC)cc23)c(F)c1 [LDC1267] |  |  |  |  | NK cell activation [6]: activates NK cells; metastasis in tumor models [7]: blocks metastasis in tumor models with different histologies |
